Measurements as given in US11713341B1, “Antimicrobial NCR13 variant peptides” (Vestaron Corporation, priority 2022, dated 2023).
Where a SMILES comes first, the peptide text is derived from it.

Tested on: Botrytis cinerea
Assay: Antimicrobial bioassay (Botrytis cinerea): growth inhibition by OD600
Type: cell-based
Conditions: for anti-Botrytis activities relative to NCR13a: Botrytis cinerea growth, comparison with NCR13a; for Activity ratio to NCR13a: anti-Botrytis cinerea activity (IC50) relative to comparator NCR13a
Protocol: The antimicrobial effect of the NCR13 variant peptides (NVPs) of the present disclosure were evaluated against the fungal species, Botrytis cinerea. […] The growth of Botrytis cinerea was then assessed via OD600 nm after incubation with a given NVP at room temperature after 96 hours. The IC50 of each peptide analyzed is shown in ppm.
The antimicrobial effect of the NCR13 variant peptides (NVPs) of the present disclosure were evaluated against the fungal species, Botrytis cinerea. […] The growth of Botrytis cinerea was then assessed via OD600 nm after incubation with a given NVP at room temperature after 96 hours.
The NVPs assessed were as follows: NVPM3 (+L) (SEQ ID NO: 5); NVPM5 (+M) (SEQ ID NO: 7); NVPM6 (+F) (SEQ ID NO: 8); NVPM7 (+W) (SEQ ID NO: 9); NVPM9 (+S) (SEQ ID NO: 11); NVPM11 (+Y) (SEQ ID NO: 13); NVPM14 (+D) (SEQ ID NO: 16); and NVPM15 (+E) (SEQ ID NO: 17).
NVPs having an amino acid sequence of SEQ ID NOs: 5, 7, 8, 9, 11, 13, 16, and 17 were generated as described above in Example 1. The peptide, NCR13a, having an amino acid sequence of: […] (SEQ ID NO: 2) was selected as a comparator peptide, with which the antifungal activity of the foregoing NVPs was compared.
The fungal species was Botrytis cinerea was cultured in potato dextrose agar plates. Fungal spores were collected from the agar plates and suspended into de-ionized water, followed by enumeration in a Petroff-Hausser counting chamber (VWR).
The 96-well plates were incubated at room temperature for 96 hours without shaking. The OD600 of the culture plate was determined using SpectraMax plate reader. Relative OD600 was determined by normalizing cell growth to control wells containing neither NVPs nor NCR13a. The OD600 was used to determine IC50.

SMILES	anti-Botrytis activities relative to NCR13a	Activity ratio to NCR13a
CC[C@H](C)[C@H](NC(=O)[C@H](CS)NC(=O)[C@H](CCCCN)NC(=O)[C@@H]1CCCN1C(=O)[C@@H](NC(=O)[C@H](CCCCN)NC(=O)[C@@H]1CCCN1C(=O)[C@H](CCCCN)NC(=O)[C@H](CCCNC(=N)N)NC(=O)[C@H](CS)NC(=O)[C@H](C)NC(=O)[C@H](Cc1ccccc1)NC(=O)[C@H](CCCCN)NC(=O)[C@H](CCCCN)NC(=O)[C@H](CS)NC(=O)[C@H](CC(=O)O)NC(=O)[C@H](CCCCN)NC(=O)[C@H](CC(=O)O)NC(=O)[C@H](CO)NC(=O)[C@H](CCC(N)=O)NC(=O)[C@H](CS)NC(=O)[C@@H]1CCCN1C(=O)[C@H](CCCCN)NC(=O)[C@@H](NC(=O)[C@@H](N)CCSC)[C@@H](C)O)C(C)C)C(=O)N[C@@H](CC(N)=O)C(=O)NCC(=O)N[C@@H](Cc1ccccc1)C(=O)N[C@@H](CS)C(=O)N[C@@H](CCCCN)C(=O)N[C@@H](CS)C(=O)N[C@H](C(=O)N[C@@H](CCCNC(=N)N)C(=O)O)C(C)C [NVPM5] (H-MTKPCQSDKDCKKFACRKPKVPKCINGFCKCVR-OH; N-terminus and C-terminus assumed)	improved anti-Botrytis activities relative to NCR13a	2.74
CC[C@H](C)[C@H](NC(=O)[C@H](CS)NC(=O)[C@H](CCCCN)NC(=O)[C@@H]1CCCN1C(=O)[C@@H](NC(=O)[C@H](CCCCN)NC(=O)[C@@H]1CCCN1C(=O)[C@H](CCCCN)NC(=O)[C@H](CCCNC(=N)N)NC(=O)[C@H](CS)NC(=O)[C@H](C)NC(=O)[C@H](Cc1ccccc1)NC(=O)[C@H](CCCCN)NC(=O)[C@H](CCCCN)NC(=O)[C@H](CS)NC(=O)[C@H](CC(=O)O)NC(=O)[C@H](CCCCN)NC(=O)[C@H](CC(=O)O)NC(=O)[C@H](CO)NC(=O)[C@H](CCC(N)=O)NC(=O)[C@H](CS)NC(=O)[C@@H]1CCCN1C(=O)[C@H](CCCCN)NC(=O)[C@@H](NC(=O)[C@@H](N)CC(=O)O)[C@@H](C)O)C(C)C)C(=O)N[C@@H](CC(N)=O)C(=O)NCC(=O)N[C@@H](Cc1ccccc1)C(=O)N[C@@H](CS)C(=O)N[C@@H](CCCCN)C(=O)N[C@@H](CS)C(=O)N[C@H](C(=O)N[C@@H](CCCNC(=N)N)C(=O)O)C(C)C [NVPM14] (H-DTKPCQSDKDCKKFACRKPKVPKCINGFCKCVR-OH; N-terminus and C-terminus assumed)	improved anti-Botrytis activities relative to NCR13a	1.61
CC[C@H](C)[C@H](NC(=O)[C@H](CS)NC(=O)[C@H](CCCCN)NC(=O)[C@@H]1CCCN1C(=O)[C@@H](NC(=O)[C@H](CCCCN)NC(=O)[C@@H]1CCCN1C(=O)[C@H](CCCCN)NC(=O)[C@H](CCCNC(=N)N)NC(=O)[C@H](CS)NC(=O)[C@H](C)NC(=O)[C@H](Cc1ccccc1)NC(=O)[C@H](CCCCN)NC(=O)[C@H](CCCCN)NC(=O)[C@H](CS)NC(=O)[C@H](CC(=O)O)NC(=O)[C@H](CCCCN)NC(=O)[C@H](CC(=O)O)NC(=O)[C@H](CO)NC(=O)[C@H](CCC(N)=O)NC(=O)[C@H](CS)NC(=O)[C@@H]1CCCN1C(=O)[C@H](CCCCN)NC(=O)[C@@H](NC(=O)[C@@H](N)CO)[C@@H](C)O)C(C)C)C(=O)N[C@@H](CC(N)=O)C(=O)NCC(=O)N[C@@H](Cc1ccccc1)C(=O)N[C@@H](CS)C(=O)N[C@@H](CCCCN)C(=O)N[C@@H](CS)C(=O)N[C@H](C(=O)N[C@@H](CCCNC(=N)N)C(=O)O)C(C)C [NVPM9] (H-STKPCQSDKDCKKFACRKPKVPKCINGFCKCVR-OH; N-terminus and C-terminus assumed)	improved anti-Botrytis activities relative to NCR13a	1.66
CC[C@H](C)[C@H](NC(=O)[C@H](CS)NC(=O)[C@H](CCCCN)NC(=O)[C@@H]1CCCN1C(=O)[C@@H](NC(=O)[C@H](CCCCN)NC(=O)[C@@H]1CCCN1C(=O)[C@H](CCCCN)NC(=O)[C@H](CCCNC(=N)N)NC(=O)[C@H](CS)NC(=O)[C@H](C)NC(=O)[C@H](Cc1ccccc1)NC(=O)[C@H](CCCCN)NC(=O)[C@H](CCCCN)NC(=O)[C@H](CS)NC(=O)[C@H](CC(=O)O)NC(=O)[C@H](CCCCN)NC(=O)[C@H](CC(=O)O)NC(=O)[C@H](CO)NC(=O)[C@H](CCC(N)=O)NC(=O)[C@H](CS)NC(=O)[C@@H]1CCCN1C(=O)[C@H](CCCCN)NC(=O)[C@@H](NC(=O)[C@@H](N)CC(C)C)[C@@H](C)O)C(C)C)C(=O)N[C@@H](CC(N)=O)C(=O)NCC(=O)N[C@@H](Cc1ccccc1)C(=O)N[C@@H](CS)C(=O)N[C@@H](CCCCN)C(=O)N[C@@H](CS)C(=O)N[C@H](C(=O)N[C@@H](CCCNC(=N)N)C(=O)O)C(C)C [NVPM3] (H-LTKPCQSDKDCKKFACRKPKVPKCINGFCKCVR-OH; N-terminus and C-terminus assumed)	improved anti-Botrytis activities relative to NCR13a	4.14
CC[C@H](C)[C@H](NC(=O)[C@H](CS)NC(=O)[C@H](CCCCN)NC(=O)[C@@H]1CCCN1C(=O)[C@@H](NC(=O)[C@H](CCCCN)NC(=O)[C@@H]1CCCN1C(=O)[C@H](CCCCN)NC(=O)[C@H](CCCNC(=N)N)NC(=O)[C@H](CS)NC(=O)[C@H](C)NC(=O)[C@H](Cc1ccccc1)NC(=O)[C@H](CCCCN)NC(=O)[C@H](CCCCN)NC(=O)[C@H](CS)NC(=O)[C@H](CC(=O)O)NC(=O)[C@H](CCCCN)NC(=O)[C@H](CC(=O)O)NC(=O)[C@H](CO)NC(=O)[C@H](CCC(N)=O)NC(=O)[C@H](CS)NC(=O)[C@@H]1CCCN1C(=O)[C@H](CCCCN)NC(=O)[C@@H](NC(=O)[C@H](C)N)[C@@H](C)O)C(C)C)C(=O)N[C@@H](CC(N)=O)C(=O)NCC(=O)N[C@@H](Cc1ccccc1)C(=O)N[C@@H](CS)C(=O)N[C@@H](CCCCN)C(=O)N[C@@H](CS)C(=O)N[C@H](C(=O)N[C@@H](CCCNC(=N)N)C(=O)O)C(C)C [NVPM1] (H-ATKPCQSDKDCKKFACRKPKVPKCINGFCKCVR-OH; N-terminus and C-terminus assumed)	–	2.43
CC[C@H](C)[C@H](NC(=O)[C@H](CS)NC(=O)[C@H](CCCCN)NC(=O)[C@@H]1CCCN1C(=O)[C@@H](NC(=O)[C@H](CCCCN)NC(=O)[C@@H]1CCCN1C(=O)[C@H](CCCCN)NC(=O)[C@H](CCCNC(=N)N)NC(=O)[C@H](CS)NC(=O)[C@H](C)NC(=O)[C@H](Cc1ccccc1)NC(=O)[C@H](CCCCN)NC(=O)[C@H](CCCCN)NC(=O)[C@H](CS)NC(=O)[C@H](CC(=O)O)NC(=O)[C@H](CCCCN)NC(=O)[C@H](CC(=O)O)NC(=O)[C@H](CO)NC(=O)[C@H](CCC(N)=O)NC(=O)[C@H](CS)NC(=O)[C@@H]1CCCN1C(=O)[C@H](CCCCN)NC(=O)[C@@H](NC(=O)[C@@H](N)Cc1ccc(O)cc1)[C@@H](C)O)C(C)C)C(=O)N[C@@H](CC(N)=O)C(=O)NCC(=O)N[C@@H](Cc1ccccc1)C(=O)N[C@@H](CS)C(=O)N[C@@H](CCCCN)C(=O)N[C@@H](CS)C(=O)N[C@H](C(=O)N[C@@H](CCCNC(=N)N)C(=O)O)C(C)C [NVPM11] (H-YTKPCQSDKDCKKFACRKPKVPKCINGFCKCVR-OH; N-terminus and C-terminus assumed)	improved anti-Botrytis activities relative to NCR13a	1.77
CC[C@H](C)[C@H](NC(=O)[C@H](CS)NC(=O)[C@H](CCCCN)NC(=O)[C@@H]1CCCN1C(=O)[C@@H](NC(=O)[C@H](CCCCN)NC(=O)[C@@H]1CCCN1C(=O)[C@H](CCCCN)NC(=O)[C@H](CCCNC(=N)N)NC(=O)[C@H](CS)NC(=O)[C@H](C)NC(=O)[C@H](Cc1ccccc1)NC(=O)[C@H](CCCCN)NC(=O)[C@H](CCCCN)NC(=O)[C@H](CS)NC(=O)[C@H](CC(=O)O)NC(=O)[C@H](CCCCN)NC(=O)[C@H](CC(=O)O)NC(=O)[C@H](CO)NC(=O)[C@H](CCC(N)=O)NC(=O)[C@H](CS)NC(=O)[C@@H]1CCCN1C(=O)[C@H](CCCCN)NC(=O)[C@@H](NC(=O)[C@@H](N)Cc1c[nH]c2ccccc12)[C@@H](C)O)C(C)C)C(=O)N[C@@H](CC(N)=O)C(=O)NCC(=O)N[C@@H](Cc1ccccc1)C(=O)N[C@@H](CS)C(=O)N[C@@H](CCCCN)C(=O)N[C@@H](CS)C(=O)N[C@H](C(=O)N[C@@H](CCCNC(=N)N)C(=O)O)C(C)C [NVPM7] (H-WTKPCQSDKDCKKFACRKPKVPKCINGFCKCVR-OH; N-terminus and C-terminus assumed)	improved anti-Botrytis activities relative to NCR13a	2.71
